Measurements taken from PubChem BioAssay (NCI).
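48-hour exposure; five concentrations; linearly interpolated endpoints. TGI denotes the concentration required for complete inhibition of growth.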

Assays:
Assay in all cases: DTP human tumour cell line panel, 48 h
UACC-62 melanoma = tested on: UACC-62 melanoma
OVCAR-8 ovarian = tested on: OVCAR-8 ovarian
NCI-H23 lung = tested on: NCI-H23 lung
M14 melanoma = tested on: M14 melanoma
HOP-62 NSCLC = tested on: HOP-62 NSCLC
SNB-19 CNS = tested on: SNB-19 CNS
SK-MEL-28 melanoma = tested on: SK-MEL-28 melanoma
OVCAR-3 ovarian = tested on: OVCAR-3 ovarian
SK-MEL-5 melanoma = tested on: SK-MEL-5 melanoma
OVCAR-5 ovarian = tested on: OVCAR-5 ovarian
SK-OV-3 ovarian = tested on: SK-OV-3 ovarian
EKVX NSCLC = tested on: EKVX NSCLC
SF-539 CNS = tested on: SF-539 CNS
SF-295 CNS = tested on: SF-295 CNS
CCRF-CEM leukemia = tested on: CCRF-CEM leukemia
HCT-15 colon = tested on: HCT-15 colon
T-47D breast = tested on: T-47D breast
MDA-MB-231 breast = tested on: MDA-MB-231 breast
BT-549 breast = tested on: BT-549 breast
MDA-N = tested on: MDA-N

| Structure (SMILES) | TGI (UACC-62 melanoma) [µM] | TGI (OVCAR-8 ovarian) [µM] | TGI (NCI-H23 lung) [µM] | TGI (M14 melanoma) [µM] | TGI (HOP-62 NSCLC) [µM] | TGI (SNB-19 CNS) [µM] | TGI (SK-MEL-28 melanoma) [µM] | TGI (OVCAR-3 ovarian) [µM] | TGI (SK-MEL-5 melanoma) [µM] | TGI (OVCAR-5 ovarian) [µM] | TGI (SK-OV-3 ovarian) [µM] | TGI (EKVX NSCLC) [µM] | TGI (SF-539 CNS) [µM] | TGI (SF-295 CNS) [µM] | TGI (CCRF-CEM leukemia) [µM] | TGI (HCT-15 colon) [µM] | TGI (T-47D breast) [µM] | TGI (MDA-MB-231 breast) [µM] | TGI (BT-549 breast) [µM] | TGI (MDA-N) [µM] |
| --- | --- | --- | --- | --- | --- | --- | --- | --- | --- | --- | --- | --- | --- | --- | --- | --- | --- | --- | --- | --- |
| COc1ccc2c3c(n(Cc4ccccc4)c(=O)c2c1)-c1cc(OC)c(OC)cc1C3C (stereo not given) | 69.9 | > 100 | > 100 | > 100 | > 70 | > 84.9 | > 100 | > 100 | 51.5 | > 100 | > 80.4 | 52.8 | 24.4 | 31.4 | > 100 | > 100 | – | – | – | – |
| O=C(O)c1ccc(-c2nc3ccc(Cl)cc3[nH]2)cc1 | – | > 100 | – | > 100 | > 100 | > 100 | – | > 100 | > 100 | – | > 100 | > 100 | > 100 | > 100 | > 100 | > 100 | > 100 | > 100 | > 100 | – |
| CC1(C)CC(=O)C2=C(C1)S/C(=C1/SC3=C(S1)C(=O)CC(C)(C)C3)S2 | > 251 | > 251 | > 251 | > 251 | > 251 | > 251 | > 251 | > 251 | – | – | > 251 | > 251 | > 251 | > 251 | > 251 | > 251 | – | – | – | – |
| CCCCCC[C@H]1CC(=O)C2CCCC[C@@]23CC[C@H](CCl)N13 (stereo not given in full) (tested in a mixture with another compound) | > 100 | 64.6 | > 100 | > 100 | > 100 | > 100 | > 100 | > 100 | 50.7 | > 100 | > 100 | > 100 | > 100 | > 100 | 90.5 | > 100 | – | > 100 | – | – |
| C=CCC(CC=O)(C(=O)OCC)C(=O)OCC | > 100 | > 100 | > 100 | > 100 | > 100 | > 100 | > 100 | > 100 | > 100 | > 100 | > 100 | > 100 | > 100 | > 100 | > 100 | > 100 | – | > 100 | – | > 100 |
| N#C/C(=C\c1ccc(O)c(O)c1)C(=O)NC1CCC(CC2CCC(NC(=O)/C(C#N)=C/c3ccc(O)c(O)c3)CC2)CC1 (stereo not given) | 3.07 | 10.4 | 3.89 | 6.83 | 4.06 | > 29.9 | > 100 | 3.96 | 12.8 | 4.09 | > 41.4 | 45.1 | 2.67 | 3.55 | 4.36 | 32.7 | – | – | – | – |
| CC(O)C(N=Cc1nc(-c2ccccc2)oc1O)C(=O)O (stereo not given) | > 100 | > 100 | > 100 | > 100 | > 100 | > 100 | > 100 | > 100 | > 100 | > 100 | > 100 | > 100 | > 100 | > 100 | > 100 | – | – | – | – | – |
| CCCCCCCCOC(CO)CO | > 100 | > 100 | > 100 | > 100 | > 100 | > 100 | > 100 | > 100 | > 100 | > 100 | > 100 | – | – | > 100 | > 100 | > 100 | – | – | – | – |
| O=C(O)Cc1cccc2c1Oc1ccccc1S2 | > 100 | > 100 | > 100 | > 100 | > 100 | > 100 | > 100 | > 100 | > 100 | – | > 100 | > 100 | > 100 | > 100 | > 100 | > 100 | – | – | – | – |
| CC(=O)C1=C(C)Cn2c(=O)c3ccccc3c(=O)n2C1 | – | > 100 | > 100 | > 100 | > 100 | > 100 | > 100 | > 100 | > 100 | > 100 | > 100 | > 100 | > 100 | > 100 | > 100 | > 100 | – | – | – | – |
| CC(Oc1ccc(OCC2CCCCC2)cc1)C(N)=O (stereo not given) | > 100 | > 100 | > 100 | > 100 | – | – | > 100 | > 100 | > 100 | – | > 100 | – | > 100 | > 100 | > 100 | > 100 | – | – | – | – |
| NNC(=S)N/N=C(/C(=O)Nc1cc(Cl)ccc1Cl)C1C(=O)Nc2ccccc2S1=O (stereo not given) | > 100 | > 100 | > 100 | > 100 | > 100 | > 100 | > 100 | > 100 | > 100 | > 100 | > 100 | > 100 | > 100 | > 100 | > 100 | > 100 | – | – | – | – |
| CC1(C)OC(C[C@]2(C#N)C[C@H](CCl)OC(C)(C)O2)C[C@@H](C[C@]2(C#N)C[C@H](CCl)OC(C)(C)O2)O1 (stereo not given in full) | > 100 | > 100 | > 100 | > 100 | > 100 | > 100 | > 100 | > 100 | > 100 | > 100 | > 100 | > 100 | > 100 | > 100 | > 100 | > 100 | – | – | – | – |
| NCCCCN(CCCN)C(=O)c1ccccc1 | > 100 | > 100 | > 100 | > 100 | > 100 | > 100 | > 100 | > 100 | > 100 | > 100 | > 100 | > 100 | > 100 | > 100 | > 100 | > 100 | > 100 | > 100 | > 100 | – |
| COc1cc(-c2cc(=O)c3c(O)c(OC)c(OC)c(OC)c3o2)ccc1O | 34.4 | 48.4 | > 100 | 81.7 | 77.3 | > 100 | > 100 | > 100 | 47.8 | > 100 | 76 | > 100 | 35.9 | 60.5 | > 100 | 43.1 | – | – | – | – |
| Cc1c(-c2nnc(-c3ccc(Cl)cc3)o2)c(=O)n(-c2ccccc2)n1C | > 100 | > 100 | > 100 | > 100 | > 100 | > 100 | > 100 | > 100 | – | – | > 100 | > 100 | 90.1 | > 100 | > 100 | > 100 | – | – | – | – |
| O=C(c1ccccc1)c1ccc(OCCOc2ccc(Nc3ccccc3)cc2)cc1 | > 100 | > 100 | > 100 | > 100 | 81.2 | > 100 | > 100 | > 100 | > 100 | > 100 | 64.4 | > 100 | > 100 | 93.9 | > 100 | > 100 | – | – | – | – |
| CC(=O)c1cccc(NC(=O)C(=O)C(C2OC(=O)c3ccccc32)[N+](=O)[O-])c1 (stereo not given) | > 100 | – | > 100 | > 100 | > 100 | > 100 | > 100 | > 100 | > 100 | > 100 | > 100 | > 100 | > 100 | > 100 | > 100 | > 100 | – | – | – | – |
| Cc1cccc(/C=C2\CCCc3ccccc3C2=O)c1 | 27.5 | 78.3 | 79.8 | 34.6 | 99.4 | 90.3 | 59 | 78.7 | – | 31.6 | > 100 | 57.1 | 34.4 | 41.8 | 35.1 | 44.9 | – | 48 | 75.6 | 55 |
| CCOC(=O)c1cc2c(nc1N)-c1ncccc1CC2 | > 100 | > 100 | > 100 | > 100 | > 100 | > 100 | > 100 | > 100 | > 100 | > 100 | > 100 | > 100 | > 100 | > 100 | > 100 | > 100 | – | – | – | – |
| CCOC(=O)N(c1ccccc1)c1cc(=O)n2ccccc2n1 | > 100 | > 100 | > 100 | – | > 100 | > 100 | > 100 | > 100 | > 100 | > 100 | > 100 | > 100 | > 100 | > 100 | > 100 | > 100 | > 100 | > 100 | > 100 | – |
| CCCc1c[nH]c(-c2ccc(-c3cc(CCC)c(C=O)[nH]3)s2)c1 | 31.2 | 26.5 | 42.4 | 24.5 | – | 37 | 26.5 | 30.8 | 30.6 | – | 32.8 | – | 32.8 | 33.1 | 91.4 | 29.6 | – | – | – | – |
| CCSC1(SCC)CC(Cc2ccc(OC)cc2)N(C=NC(C)(C)C)C1 (stereo not given) | 67 | > 100 | 43.3 | 32.2 | > 100 | > 100 | 88.4 | > 100 | 31.3 | > 100 | 83.6 | > 100 | > 100 | 45.5 | 52.4 | > 100 | – | – | – | – |
